ChEMBL document CHEMBL1275409, “Antimicrobial-resistant pathogens in intensive care units in Canada: results of the Canadian National Intensive Care Unit (CAN-ICU) study, 2005-2006” (2008)

What was measured:
Assay type in all cases: functional
Staphylococcus aureus [1] = experiment: Antimicrobial activity against methicillin-resistant Staphylococcus aureus isolated from ICU patient wound assessed as resistant isolates by broth microdilution method
Streptococcus pneumoniae [2] = experiment: Antimicrobial activity against penicillin-resistant Streptococcus pneumoniae isolated from ICU patient respiratory tract assessed as resistant isolates by broth microdilution method
Pseudomonas aeruginosa [3] = experiment: Antimicrobial activity against carbapenem-resistant Pseudomonas aeruginosa isolated from ICU patient blood assessed as resistant isolates by broth microdilution method
[4] = test system: Staphylococcus epidermidis; experiment: Antimicrobial activity against methicillin-resistant Staphylococcus epidermidis assessed as resistant isolates by broth microdilution method
Klebsiella pneumoniae [5] = experiment: Antimicrobial activity against ESBL producing Klebsiella pneumoniae isolated from ICU patient respiratory tract assessed as resistant isolates by broth microdilution method
Staphylococcus aureus [6] = experiment: Antimicrobial activity against methicillin-susceptible Staphylococcus aureus assessed as resistant isolates by broth microdilution method
Pseudomonas aeruginosa [7] = experiment: Antimicrobial activity against carbapenem-resistant Pseudomonas aeruginosa isolated from ICU patient respiratory tract assessed as resistant isolates by broth microdilution method
Klebsiella pneumoniae [8] = experiment: Antimicrobial activity against ESBL producing Klebsiella pneumoniae isolated from ICU patient urine assessed as resistant isolates by broth microdilution method
Pseudomonas aeruginosa [9] = experiment: Antimicrobial activity against carbapenem-resistant Pseudomonas aeruginosa isolated from ICU patient urine assessed as resistant isolates by broth microdilution method
[10] = test system: Staphylococcus epidermidis; experiment: Antimicrobial activity against methicillin-resistant Staphylococcus epidermidis isolated from ICU patient urine assessed as resistant isolates by broth microdilution method
Pseudomonas aeruginosa [11] = experiment: Antimicrobial activity against carbapenem-resistant Pseudomonas aeruginosa assessed as resistant isolates by broth microdilution method
Staphylococcus aureus [12] = experiment: Antimicrobial activity against methicillin-resistant Staphylococcus aureus isolated from ICU patient urine assessed as resistant isolates by broth microdilution method
Escherichia coli [13] = experiment: Antimicrobial activity against CTX-M ESBL producing Escherichia coli assessed as resistant isolates by broth microdilution method
Staphylococcus aureus [14] = experiment: Antimicrobial activity against methicillin-susceptible Staphylococcus aureus isolated from ICU patient wound assessed as resistant isolates by broth microdilution method
[15] = test system: Staphylococcus epidermidis; experiment: Antimicrobial activity against methicillin-resistant Staphylococcus epidermidis isolated from ICU patient wound assessed as resistant isolates by broth microdilution method
[16] = test system: Staphylococcus epidermidis; experiment: Antimicrobial activity against methicillin-susceptible Staphylococcus epidermidis assessed as resistant isolates by broth microdilution method
Haemophilus influenzae [17] = experiment: Antimicrobial activity against Haemophilus influenzae isolated from ICU patient blood assessed as resistant isolates by broth microdilution method
Escherichia coli [18] = experiment: Antimicrobial activity against CTX-M ESBL producing Escherichia coli isolated from ICU patient urine assessed as resistant isolates by broth microdilution method
Klebsiella pneumoniae [19] = experiment: Antimicrobial activity against ESBL producing Klebsiella pneumoniae isolated from ICU patient blood assessed as resistant isolates by broth microdilution method
Staphylococcus aureus [20] = experiment: Antimicrobial activity against methicillin-resistant Staphylococcus aureus assessed as resistant isolates by broth microdilution method
Klebsiella pneumoniae [21] = experiment: Antimicrobial activity against ESBL producing Klebsiella pneumoniae isolated from ICU patient wound assessed as resistant isolates by broth microdilution method
Haemophilus influenzae [22] = experiment: Antimicrobial activity against Haemophilus influenzae isolated from ICU patient wound assessed as resistant isolates by broth microdilution method
Haemophilus influenzae [23] = experiment: Antimicrobial activity against Haemophilus influenzae isolated from ICU patient respiratory tract assessed as resistant isolates by broth microdilution method
Escherichia coli [24] = experiment: Antimicrobial activity against CTX-M ESBL producing Escherichia coli isolated from ICU patient respiratory tract assessed as resistant isolates by broth microdilution method
[25] = test system: Staphylococcus epidermidis; experiment: Antimicrobial activity against methicillin-susceptible Staphylococcus epidermidis isolated from ICU patient respiratory tract assessed as resistant isolates by broth microdilution method
Haemophilus influenzae [26] = experiment: Antimicrobial activity against Haemophilus influenzae assessed as resistant isolates by broth microdilution method
Staphylococcus aureus [27] = experiment: Antimicrobial activity against methicillin-resistant Staphylococcus aureus isolated from ICU patient blood assessed as resistant isolates by broth microdilution method
[28] = test system: Staphylococcus epidermidis; experiment: Antimicrobial activity against methicillin-resistant Staphylococcus epidermidis isolated from ICU patient blood assessed as resistant isolates by broth microdilution method
Streptococcus pneumoniae [29] = experiment: Antimicrobial activity against penicillin-resistant Streptococcus pneumoniae assessed as resistant isolates by broth microdilution method
Staphylococcus aureus [30] = experiment: Antimicrobial activity against methicillin-resistant Staphylococcus aureus isolated from ICU patient respiratory tract assessed as resistant isolates by broth microdilution method
Staphylococcus aureus [31] = experiment: Antimicrobial activity against methicillin-susceptible Staphylococcus aureus isolated from ICU patient respiratory tract assessed as resistant isolates by broth microdilution method
Pseudomonas aeruginosa [32] = experiment: Antimicrobial activity against carbapenem-resistant Pseudomonas aeruginosa isolated from ICU patient wound assessed as resistant isolates by broth microdilution method
[33] = test system: Staphylococcus epidermidis; experiment: Antimicrobial activity against methicillin-susceptible Staphylococcus epidermidis isolated from ICU patient blood assessed as resistant isolates by broth microdilution method
Klebsiella pneumoniae [34] = experiment: Antimicrobial activity against ESBL producing Klebsiella pneumoniae assessed as resistant isolates by broth microdilution method
[35] = test system: Staphylococcus epidermidis; experiment: Antimicrobial activity against methicillin-susceptible Staphylococcus epidermidis isolated from ICU patient wound assessed as resistant isolates by broth microdilution method
Escherichia coli [36] = experiment: Antimicrobial activity against CTX-M ESBL producing Escherichia coli isolated from ICU patient blood assessed as resistant isolates by broth microdilution method
Streptococcus pneumoniae [37] = experiment: Antimicrobial activity against penicillin-resistant Streptococcus pneumoniae isolated from ICU patient wound assessed as resistant isolates by broth microdilution method
Streptococcus pneumoniae [38] = experiment: Antimicrobial activity against penicillin-resistant Streptococcus pneumoniae isolated from ICU patient blood assessed as resistant isolates by broth microdilution method
Staphylococcus aureus [39] = experiment: Antimicrobial activity against methicillin-susceptible Staphylococcus aureus isolated from ICU patient blood assessed as resistant isolates by broth microdilution method
[40] = test system: Staphylococcus epidermidis; experiment: Antimicrobial activity against methicillin-susceptible Staphylococcus epidermidis isolated from ICU patient urine assessed as resistant isolates by broth microdilution method
Staphylococcus aureus [41] = experiment: Antimicrobial activity against methicillin-susceptible Staphylococcus aureus isolated from ICU patient urine assessed as resistant isolates by broth microdilution method
Escherichia coli [42] = experiment: Antimicrobial activity against CTX-M ESBL producing Escherichia coli isolated from ICU patient wound assessed as resistant isolates by broth microdilution method
Enterobacter cloacae [43] = experiment: Antimicrobial activity against carbapenem-resistant Enterobacter cloacae isolated from ICU patient urine assessed as resistant isolates by broth microdilution method
Enterobacter cloacae [44] = experiment: Antimicrobial activity against carbapenem-resistant Enterobacter cloacae assessed as resistant isolates by broth microdilution method
Enterobacter cloacae [45] = experiment: Antimicrobial activity against carbapenem-resistant Enterobacter cloacae isolated from ICU patient blood assessed as resistant isolates by broth microdilution method
Enterobacter cloacae [46] = experiment: Antimicrobial activity against carbapenem-resistant Enterobacter cloacae isolated from ICU patient wound assessed as resistant isolates by broth microdilution method
Enterobacter cloacae [47] = experiment: Antimicrobial activity against carbapenem-resistant Enterobacter cloacae isolated from ICU patient respiratory tract assessed as resistant isolates by broth microdilution method
Enterococcus sp. [48] = experiment: Antimicrobial activity against vancomycin-resistant Enterococcus sp. isolated from ICU patient blood assessed as resistant isolates by broth microdilution method
Enterococcus sp. [49] = experiment: Antimicrobial activity against vancomycin-resistant Enterococcus sp. assessed as resistant isolates by broth microdilution method
Enterococcus sp. [50] = experiment: Antimicrobial activity against vancomycin-resistant Enterococcus sp. isolated from ICU patient urine assessed as resistant isolates by broth microdilution method
Enterococcus sp. [51] = experiment: Antimicrobial activity against vancomycin-resistant Enterococcus sp. isolated from ICU patient wound assessed as resistant isolates by broth microdilution method
Enterococcus sp. [52] = experiment: Antimicrobial activity against vancomycin-resistant Enterococcus sp. isolated from ICU patient respiratory tract assessed as resistant isolates by broth microdilution method

CO/N=C(\C(=O)N[C@@H]1C(=O)N2C(C(=O)[O-])=C(C[N+]3(C)CCCC3)CS[C@H]12)c1csc(N)n1
Activity (Staphylococcus aureus [1]): 100% | Activity (Streptococcus pneumoniae [2]): 0% | Activity (Pseudomonas aeruginosa [3]): 0% | Activity [4]: 100% | Activity (Klebsiella pneumoniae [5]): 7.6% | Activity (Staphylococcus aureus [6]): 0% | Activity (Pseudomonas aeruginosa [7]): 0% | Activity (Klebsiella pneumoniae [8]): 17.8% | Activity (Pseudomonas aeruginosa [9]): 0% | Activity [10]: 100% | Activity (Pseudomonas aeruginosa [11]): 0% | Activity (Staphylococcus aureus [12]): 100% | Activity (Escherichia coli [13]): 0.7% | Activity (Staphylococcus aureus [14]): 0% | Activity [15]: 100% | Activity [16]: 16.3% | Activity (Haemophilus influenzae [17]): 0% | Activity (Escherichia coli [18]): 0.4% | Activity (Klebsiella pneumoniae [19]): 9.1% | Activity (Staphylococcus aureus [20]): 100% | Activity (Klebsiella pneumoniae [21]): 18.9% | Activity (Haemophilus influenzae [22]): 0% | Activity (Haemophilus influenzae [23]): 0% | Activity (Escherichia coli [24]): 0.8% | Activity [25]: 0% | Activity (Haemophilus influenzae [26]): 0% | Activity (Staphylococcus aureus [27]): 100% | Activity [28]: 100% | Activity (Streptococcus pneumoniae [29]): 0% | Activity (Staphylococcus aureus [30]): 100% | Activity (Staphylococcus aureus [31]): 0% | Activity (Pseudomonas aeruginosa [32]): 0% | Activity [33]: 8.9% | Activity (Klebsiella pneumoniae [34]): 10.2% | Activity [35]: 33.3% | Activity (Escherichia coli [36]): 1.4% | Activity (Streptococcus pneumoniae [37]): 0% | Activity (Streptococcus pneumoniae [38]): 0% | Activity (Staphylococcus aureus [39]): 0% | Activity [40]: 20% | Activity (Staphylococcus aureus [41]): 0%

NCC[C@H](O)C(=O)N[C@@H]1C[C@H](N)[C@@H](O[C@H]2O[C@H](CN)[C@@H](O)[C@H](O)[C@H]2O)[C@H](O)[C@H]1O[C@H]1O[C@H](CO)[C@@H](O)[C@H](N)[C@H]1O [AMIKACIN]
Activity (Escherichia coli [42]): 0% | Activity (Pseudomonas aeruginosa [3]): 0% | Activity (Klebsiella pneumoniae [5]): 2.4% | Activity (Enterobacter cloacae [43]): 0% | Activity (Pseudomonas aeruginosa [7]): 0% | Activity (Klebsiella pneumoniae [8]): 6.7% | Activity (Enterobacter cloacae [44]): 0% | Activity (Pseudomonas aeruginosa [9]): 0% | Activity (Pseudomonas aeruginosa [11]): 0% | Activity (Escherichia coli [13]): 0% | Activity (Enterobacter cloacae [45]): 0% | Activity (Escherichia coli [18]): 0% | Activity (Klebsiella pneumoniae [19]): 0% | Activity (Klebsiella pneumoniae [21]): 1.9% | Activity (Escherichia coli [24]): 0% | Activity (Enterobacter cloacae [46]): 0% | Activity (Pseudomonas aeruginosa [32]): 0% | Activity (Klebsiella pneumoniae [34]): 2.6% | Activity (Enterobacter cloacae [47]): 0% | Activity (Escherichia coli [36]): 0%

CN(C)c1cc(NC(=O)CNC(C)(C)C)c(O)c2c1C[C@H]1C[C@H]3[C@H](N(C)C)C(O)=C(C(N)=O)C(=O)[C@@]3(O)C(O)=C1C2=O [TIGECYCLINE]
Activity (Staphylococcus aureus [1]): 0% | Activity (Escherichia coli [42]): 0% | Activity (Enterococcus sp. [48]): 0% | Activity (Pseudomonas aeruginosa [3]): 0% | Activity (Enterococcus sp. [49]): 0% | Activity (Staphylococcus aureus [6]): 0% | Activity (Enterobacter cloacae [43]): 6.3% | Activity (Pseudomonas aeruginosa [7]): 0% | Activity (Enterobacter cloacae [44]): 0.6% | Activity (Pseudomonas aeruginosa [9]): 2% | Activity (Enterococcus sp. [50]): 0% | Activity (Pseudomonas aeruginosa [11]): 0.4% | Activity (Staphylococcus aureus [12]): 0% | Activity (Escherichia coli [13]): 0% | Activity (Enterobacter cloacae [45]): 0% | Activity (Staphylococcus aureus [14]): 0% | Activity (Escherichia coli [18]): 0% | Activity (Staphylococcus aureus [20]): 0% | Activity (Escherichia coli [24]): 0% | Activity (Enterobacter cloacae [46]): 0% | Activity (Staphylococcus aureus [27]): 0% | Activity (Enterococcus sp. [51]): 0% | Activity (Enterococcus sp. [52]): 0% | Activity (Staphylococcus aureus [30]): 0% | Activity (Staphylococcus aureus [31]): 0% | Activity (Pseudomonas aeruginosa [32]): 3.9% | Activity (Enterobacter cloacae [47]): 0% | Activity (Escherichia coli [36]): 0% | Activity (Staphylococcus aureus [39]): 0% | Activity (Staphylococcus aureus [41]): 0%

GENTAMICIN
Activity (Escherichia coli [42]): 6.9% | Activity (Pseudomonas aeruginosa [3]): 0% | Activity (Klebsiella pneumoniae [5]): 14.2% | Activity (Enterobacter cloacae [43]): 6.3% | Activity (Pseudomonas aeruginosa [7]): 0% | Activity (Klebsiella pneumoniae [8]): 22.2% | Activity (Enterobacter cloacae [44]): 3% | Activity (Pseudomonas aeruginosa [9]): 0% | Activity (Pseudomonas aeruginosa [11]): 0% | Activity (Escherichia coli [13]): 3% | Activity (Enterobacter cloacae [45]): 8.3% | Activity (Escherichia coli [18]): 1.1% | Activity (Klebsiella pneumoniae [19]): 9.1% | Activity (Klebsiella pneumoniae [21]): 18.9% | Activity (Escherichia coli [24]): 3.3% | Activity (Enterobacter cloacae [46]): 0% | Activity (Pseudomonas aeruginosa [32]): 0% | Activity (Klebsiella pneumoniae [34]): 15.2% | Activity (Enterobacter cloacae [47]): 1.9% | Activity (Escherichia coli [36]): 6.9%
